Paper PMC6591251, “Discovery of potent necroptosis inhibitors targeting RIPK1 kinase activity for the treatment of inflammatory disorder and cancer metastasis” (Cell Death & Disease, 2019)
pEC50, pIC50: −log10 of the molar value.

What was measured:
[1] = tested on: U937 cells; test: TNF-induced necroptosis (T/S/Z), cell viability by ATP levels; type: cell-based; details: Homo sapiens, U-937, 24 h, T/S/Z 24 h
[2] = tested on: mouse embryonic fibroblasts (MEFs); test: as above; type: cell-based; details: Fibroblast, 24 h, MEF, T/S/Z 24 h
[3] = tested on: human and mouse cells; test: RIPK1-dependent necroptosis (abstract summary); type: cell-based; details: read-out: EC50, inhibition of RIPK1-dependent necroptosis
From the text: Necroptosis is a form of regulated necrosis controlled by receptor-interacting kinase 1 (RIPK1 or RIP1), RIPK3 (RIP3), and pseudokinase mixed lineage kinase domain-like protein (MLKL). […] Herein, we discovered the small-molecule PK6 and its derivatives as a novel class of necroptosis inhibitors that directly block the kinase activity of RIPK1. […] PK68 efficiently blocks cellular activation of RIPK1, RIPK3, and MLKL upon necroptosis stimuli. […] Importantly, PK68 provides strong protection against TNF-α-induced systemic inflammatory response syndrome in vivo.

[4] = molecular target: T1, TNIK (Homo sapiens, UniProt Q9UKE5); test: Kinase activity assay at a CRO; type: biochemical; details: CRO company
T1 sequence (Q9UKE5 whole entry): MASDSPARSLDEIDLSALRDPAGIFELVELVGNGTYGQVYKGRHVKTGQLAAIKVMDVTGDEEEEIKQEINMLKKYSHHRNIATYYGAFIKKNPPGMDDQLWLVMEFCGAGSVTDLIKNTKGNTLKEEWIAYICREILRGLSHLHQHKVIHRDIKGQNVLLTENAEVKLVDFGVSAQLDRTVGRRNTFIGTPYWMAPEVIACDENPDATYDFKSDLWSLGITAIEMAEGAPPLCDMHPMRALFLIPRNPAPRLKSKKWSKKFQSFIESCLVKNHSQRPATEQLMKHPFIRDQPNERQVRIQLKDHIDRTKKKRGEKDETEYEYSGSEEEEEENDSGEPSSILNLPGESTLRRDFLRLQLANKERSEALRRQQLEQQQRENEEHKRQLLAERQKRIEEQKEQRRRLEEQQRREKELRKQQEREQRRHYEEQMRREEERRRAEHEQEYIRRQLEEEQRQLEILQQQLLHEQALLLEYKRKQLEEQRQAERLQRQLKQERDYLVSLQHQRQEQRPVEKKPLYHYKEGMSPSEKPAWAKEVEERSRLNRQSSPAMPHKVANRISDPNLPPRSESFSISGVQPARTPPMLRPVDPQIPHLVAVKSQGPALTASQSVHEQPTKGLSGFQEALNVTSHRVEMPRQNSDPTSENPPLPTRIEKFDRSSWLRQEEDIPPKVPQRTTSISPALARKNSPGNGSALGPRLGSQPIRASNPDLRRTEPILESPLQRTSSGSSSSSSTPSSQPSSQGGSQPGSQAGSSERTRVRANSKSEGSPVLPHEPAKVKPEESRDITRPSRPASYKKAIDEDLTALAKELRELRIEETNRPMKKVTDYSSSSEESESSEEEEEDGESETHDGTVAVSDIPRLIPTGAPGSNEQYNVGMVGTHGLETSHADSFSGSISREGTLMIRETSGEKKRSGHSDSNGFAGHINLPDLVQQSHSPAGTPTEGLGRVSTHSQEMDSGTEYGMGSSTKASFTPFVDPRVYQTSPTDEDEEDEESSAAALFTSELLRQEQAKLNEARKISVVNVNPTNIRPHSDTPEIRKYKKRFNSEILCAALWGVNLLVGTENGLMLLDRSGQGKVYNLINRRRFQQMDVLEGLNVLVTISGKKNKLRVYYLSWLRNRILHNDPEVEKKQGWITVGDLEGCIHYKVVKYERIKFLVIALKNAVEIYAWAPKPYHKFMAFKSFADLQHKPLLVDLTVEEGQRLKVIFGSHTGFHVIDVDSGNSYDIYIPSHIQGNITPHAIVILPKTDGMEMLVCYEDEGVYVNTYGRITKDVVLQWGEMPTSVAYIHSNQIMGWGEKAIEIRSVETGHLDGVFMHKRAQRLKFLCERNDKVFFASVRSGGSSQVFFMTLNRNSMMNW
Procedure: (§1) Further, we evaluated the selectivity of PK68 against a panel of 369 kinases provided by Reaction Biology (at 1000 nM). […] In addition, we followed on some of the active “hits” from the kinome scan. PK68 was tested against TNIK and TRKA by a reputable CRO company. […] RIPK1 is known to mediate NF-κB activation independently of its kinase activity. […] It has been shown that homodimerization of RIPK3 or MLKL induced by the dimerizer leads to necroptosis bypassing the upstream signals[10],[37]. […] This dimerized RIPK3-induced necroptosis was blocked by RIPK3 inhibitor GSK873 but was not blocked by the RIPK1 inhibitor necrostatin-1. […] (Fig. 4e).
(§2) Supplementary Figure 20. The kinase activity assays of PK68 in TNIK and TRKA in vitro, Staurosporine as control.
(§3) (A) The IC50 values were obtained by increasing concentrations of PK68 and Staurosporine in TNIK. (B) The IC50 values were obtained by increasing concentrations of PK68 and Staurosporine in TRKA.

[5] = molecular target: T2, TRKA (Homo sapiens, UniProt P04629); test: Kinase activity assay at a CRO; type: biochemical; details: CRO company
T2 sequence (P04629 33-796): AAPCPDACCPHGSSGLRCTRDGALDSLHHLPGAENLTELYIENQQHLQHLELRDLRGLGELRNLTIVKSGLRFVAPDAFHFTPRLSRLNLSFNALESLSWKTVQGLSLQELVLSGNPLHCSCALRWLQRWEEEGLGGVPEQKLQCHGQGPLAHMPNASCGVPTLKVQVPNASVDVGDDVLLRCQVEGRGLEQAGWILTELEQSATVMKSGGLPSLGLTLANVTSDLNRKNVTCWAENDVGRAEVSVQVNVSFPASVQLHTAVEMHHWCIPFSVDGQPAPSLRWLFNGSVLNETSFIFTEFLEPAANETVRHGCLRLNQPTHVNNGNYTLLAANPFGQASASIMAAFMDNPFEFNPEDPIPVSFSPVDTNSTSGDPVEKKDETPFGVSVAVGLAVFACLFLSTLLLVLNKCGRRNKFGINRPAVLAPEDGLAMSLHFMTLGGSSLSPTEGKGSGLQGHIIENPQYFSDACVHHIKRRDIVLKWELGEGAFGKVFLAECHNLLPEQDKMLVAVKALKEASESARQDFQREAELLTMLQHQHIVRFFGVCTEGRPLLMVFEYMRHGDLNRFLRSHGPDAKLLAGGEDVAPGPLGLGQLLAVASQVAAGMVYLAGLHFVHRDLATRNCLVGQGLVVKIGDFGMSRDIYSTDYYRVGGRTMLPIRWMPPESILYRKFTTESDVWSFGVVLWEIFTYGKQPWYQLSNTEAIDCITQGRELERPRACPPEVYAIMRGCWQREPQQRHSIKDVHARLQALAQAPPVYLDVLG
Procedure: as §1, §2, §3

[6] = tested on: B16-F10 cells; test: Lung metastasis model of melanoma cells; type: in vivo, C57BL/6 mice; details: 5 mg/kg ip pre-treatment; 14 days
Procedure: (§4) Studies have shown that RIPK1 kinase activity is involved in the promotion of tumor metastasis through death receptor 6-dependent necroptosis of endothelial cells[22] or VEGF-dependent activation of vascular permeability. We thus evaluated the therapeutic effect of PK68 on lung metastasis of mouse melanoma B16-F10 cells in vivo. […] After 2 weeks, the metastasis of B16-F10 cells was measured by histological analysis and assessed as the number of metastasis nodules in the lung. […] Two weeks after intravenous injection of RFP-LL/2 cells, RFP^+ LL/2 cells were isolated from the tumor tissues by flow cytometer sorting and no signal of phosphorylated RIPK1 was detected in these tumors cells (Supplementary Fig. 22). […] Further, we evaluated the effect of PK68 on the tumor cell transmigration across the cultured endothelium. […]
C57BL/6 mice bearing B16-F10 cells (a, b) or RFP-labeled LL/2 cells (c, d) were treated with vehicle, PK68 (5 mg/kg) or Nec-1s (5 mg/kg) as described in the Materials and methods. a, b Tumor metastasis of B16-F10 was measured by the numbers of metastasis nodules and histological analysis. […] The numbers of metastasis nodules on lung surfaces (b) in the metastasis model of B16-F10 were counted with the microscope. c, d Tumor metastasis of RFP-labeled LL/2 was calculated by RFP […] intensity. […]

[7] = tested on: B16-F10 or RFP-LL/2 cells; test: Proliferation rate and invasion ability without endothelial monolayer; type: cell-based, mouse; details: B16-F10 or RFP-LL/2, in vitro
Procedure: as §4, with “22). Six hours after intravenous injection of RFP-LL/2 cells into C57BL/6 mice, the RFP-LL/2 cells have extravasated through blood vessels into the lung (Supplementary Fig. 23).” for “22).”, “endothelium. We isolated CD31^+ endothelial cells from the lungs and performed the transendothelial migration assay as previously reported.” for “endothelium.”
(A-B) B16-F10 and RFP-LL/2 cells were pretreated with indicated compounds for 1h and then cell viability was measured by cell Titer-Glo. (C) B16-F10 and RFP-LL/2 cells were pre-treated with indicated compounds and invasion ability was measured by the transwell assay.

[8] = molecular target: T1, TNIK; test: RBC kinase panel; type: biochemical; set-up: purchased Reaction Biology Corporation
Procedure: (§5) PK68 was tested at 1 μM in duplicate against a panel of 369 human kinases at Reaction Biology Corporation. Results are viewed in the human kinome phylogenetic tree.
(§6) ^a Compound PK68 was tested at 1 μM in duplicate against 369 kinases using the RBC kinase panel service of Reaction Biology Corporation. All the ATP concentrations used were 10 μM. […] Full protocol details are available at http://www.reactionbiology.com.

[9] = molecular target: T2, TRKA; test: RBC kinase panel; type: biochemical; set-up: purchased Reaction Biology Corporation
Procedure: as §5, §6

SMILES | pEC50 [1] | pEC50 [2] | pEC50 [3] | pIC50 [4] | pIC50 [5] | number of pulmonary metastasis nodules [6] | proliferation rate and invasion ability [7] | Activity% ([8]; 1 μM, ATP 10 μM, Data1, Data2) | activity at 1 µM ([8]; 1 μM, ATP 10 μM, Data1, Data2) | inhibition at 1 µM ([8]; at 1000 nM) | Activity% ([9]; 1 μM, ATP 10 μM, Data1, Data2) | activity at 1 µM ([9]; 1 μM, ATP 10 μM, Data1, Data2) | inhibition at 1 µM ([9]; at 1000 nM)
CC(=O)Nc1nc2ccc(-c3cnc(Cl)c(NC(=O)Cc4ccccc4)c3)cc2s1 [PK6, N-(5-(2-acetamidobenzo[d]thiazol-6-yl)-2-chloropyridin-3-yl)-2-phenylacetamide] | ~5.88 | ~6.02 | – | – | – | – | – | – | – | – | – | – | –
CC(=O)Nc1nc2ccc(-c3cnc(C)c(NC(=O)OC4CCCCC4)c3)cc2s1 [PK68, cyclohexyl (5-(2-acetamidobenzo[d]thiazol-6-yl)-2-methylpyridin-3-yl)carbamate] | – | – | 7.66 to 7.85 | ~5.00 | ~5.00 | significantly reduced | no obvious influence | 38.77% | 39% | > 50% | 28.42% | 29.1% | > 50%
